# In patent US8664400B2, “Triphenylamine derivatives useful as fluorophores in biology, in particular for two-photon microscopy” (Centre National de la Recherche Scientifique, priority 2006, dated 2014):
# Where two headings read alike, the source gives them in different places.
# Assays:
# [1] = Two-photon absorption by two-photon-induced fluorescence (TPIF); type: physicochemical
# Experimental: (§1) The two-photon absorption properties of the compounds according to the invention were assessed using the two-photon-induced fluorescence (TPIF) technique and by means of a Titanium:Sapphire femtosecond laser source with pulses of 90 fs to 76 MHz which can be tuned to 750-840 nm.
# [2] = according to the literature; cited from earlier work
# [3] = 36 μM, 20° C.; cited from earlier work
# [4] = Emission and single-photon absorption properties in glycerol or sodium cacodylate buffer; type: physicochemical
# [5] = system: duplex DNA of 26 base pairs of self-complementary sequence (ds26); experiment: Single-photon absorption and fluorescence emission in the presence of DNA; type: binding; conditions: for ΦF (quantum fluorescence yield) / ε / λabs. / λem.: DNA
# [6] = biological target: ds26 DNA; experiment: Affinity for DNA by fluorometric titration; type: binding; conditions: 10 mM sodium cacodylate buffer, pH 7.0, 100 mM NaCl
# [7] = system: herring testis DNA; experiment: Two-photon absorption (TPIF) in the presence of DNA; type: physicochemical; conditions: for two-photon spectra in presence of DNA compared with glycerol: sodium cacodylate buffer 10 mM, pH 7.3, 5 equivalents herring testis DNA, all excitation wavelengths
# Experimental: as §1
# [8] = Photostability under irradiation with a 150 W xenon-mercury lamp; type: physicochemical; conditions: about thirty minutes
# [9] = system: CHO K1 cells; experiment: Epifluorescence and confocal microscopy of fixed, treated cells; type: cell-based, Chinese hamster
# Experimental: The CHO-K1 cells, cultured beforehand in wells, on glass supports coated with polyornithine, containing a commercially available standard culture medium, were fixed using a formaldehyde (4%) solution in PBS.
# The cells were then incubated, at room temperature and for 20 minutes, in the presence of the markers or mixtures of markers to be tested (in aqueous solution) and then washed with PBS buffer (13 mM NaCl, 0.27 mM KCl, 0.15 mM KH2PO4, 0.8 mM Na2HPO4, pH 7.4) in order to remove the excess marker. […] The cells were then prepared conventionally for microscopic examination.
# Epifluorescence microscopy examinations were carried out with a Nikon Eclipse E 800 microscope fitted with a 60× (1.4) lens and a Nikon DXM 1200 digital apparatus, while the confocal microscopy examinations were carried out with a Leica DM6000 microscope comprising an SP2 unit equipped with a 63× (1.4) lens and an HeNe laser for excitation of the markers.
# [10] = 10 mM sodium cacodylate, pH 7.0, 5 μM compound, 0.5 to 5 equivalents ds26
ε ([4]; Na cacodyl.),λabs. ([4]; Na cacodyl.) [nm],ΦF (quantum fluorescence yield) ([4]; glyc.),ε ([4]; glyc.),λabs. ([4]; glyc.) [nm],λem. ([4]; glyc.) [nm],ΦF (quantum fluorescence yield) [5],ε [5],λabs. [5] [nm],λem. [5] [nm],Structure (SMILES),"hypochromism caused by the presence of DNA [5, 10]",two-photon spectra in presence of DNA compared with glycerol [7],other results
,,,,,,,,,,"C(=Cc1ccc(N(c2ccc(C=Cc3ccncc3)cc2)c2ccc(C=Cc3ccncc3)cc2)cc1)c1ccncc1 [tris[4-(2-pyridin-4-ylvinyl)phenyl]amine, reference compound]",,,"two-photon excitation maximum ([1]; in dichloromethane): around 820 nm; efficient two-photon absorption section ([1]; measurements performed by the Inventors, in dichloromethane): 90 GM; efficient two-photon absorption section [2]: 58 GM"
,,,,,,,,,,CN1C(=Cc2cc[n+](C)c3ccccc23)Sc2ccccc21 [thiazole orange],,,form in aqueous medium (aggregation) [3]: in the form of dimers
39 800 L/mol · cm,474,0.112,37 400 L/mol · cm,491,656,0.07,31 400 L/mol · cm,509,665,"C[n+]1ccc(C=Cc2ccc(N(c3ccccc3)c3ccc(C=Cc4cc[n+](C)cc4)cc3)cc2)cc1.[I-].[I-] [TP-2Py, Bis[4-(2-N-methylpyridinium-4-ylvinyl)phenyl]phenylamine iodide]",about 20%,identical to those previously observed in glycerol,"molar extinction coefficient (ε) ([4]; in glycerol, at 474 nm): 37 400 L/mol·cm; shift of absorption spectra caused by the presence of DNA [5, 10]: shift towards the red region; dissociation constant Kd [6]: of the order of the micromolar; δ (efficient two-photon absorption section) ([1]; glyc.): 315 GM; wavelength of relative maximum of two-photon absorption ([1]; in glycerol): ~820 nm; δ (efficient two-photon absorption section) ([7]; DNA): 200 GM"
,,,,,,,,,,"CN1C(=CC=Cc2cc[n+](CCC[N+](C)(C)C)c3ccccc23)Sc2ccccc21.[I-].[I-] [TO-PRO-3, 1-(N,N,N-trimethylaminopropyl)-4-{2-[3-methyl-2,3-dihydro-(benzo-1,3-thiazole)-2-ethylidene]vinyl}quinolinium iodide, reference compound]",,,decrease of fluorescence emission during irradiation [8]: more than 40%
59 000 L/mol · cm,474,0.123,66 000 L/mol · cm,491,665,0.021,51 000 L/mol · cm,499,684,"C[n+]1ccc(C=Cc2ccc(N(c3ccc(C=Cc4cc[n+](C)cc4)cc3)c3ccc(C=Cc4cc[n+](C)cc4)cc3)cc2)cc1.[I-].[I-].[I-] [TP-3Py, Tris[4-(2-N-methylpyridinium-4-ylvinyl)phenyl]amine iodide]",about 20%,identical to those previously observed in glycerol,"effect of irradiation on fluorescence emission [8]: scarcely modified; image quality of chromosomes ([9]; CHO K1 cells in mitosis, 2 μM, phase contrast and confocal microscopies coupled): very high degree of sharpness and a high resolution; location of fluorescence in cells ([9]; fixed CHO K1 cells, 2 μM compound with DAPI 3 μM, 20 minutes, epifluorescence microscopy): located exclusively in the nucleus; stability at the focal point of the microscope lens ([9]; fixed CHO K1 cells, 2 μM, epifluorescence microscopy): very stable"
